Experimental data from patent US20250051347A1, “BIFUNCTIONAL CHIMERIC HETEROCYCLIC COMPOUND AND USE THEREOF AS ANDROGEN RECEPTOR DEGRADER” (Hinova Pharmaceuticals, Inc., priority 2021, published 2025).

Molecular target: T1, androgen receptor (AR) splicing variant AR-v7 (Homo sapiens, UniProt P10275)
T1 construct: The degradation activity of compounds on AR-v7 in 22RV1 cells; host or cells: 22RV1 cells
T1 sequence (P10275 1-644 isoform P10275-3): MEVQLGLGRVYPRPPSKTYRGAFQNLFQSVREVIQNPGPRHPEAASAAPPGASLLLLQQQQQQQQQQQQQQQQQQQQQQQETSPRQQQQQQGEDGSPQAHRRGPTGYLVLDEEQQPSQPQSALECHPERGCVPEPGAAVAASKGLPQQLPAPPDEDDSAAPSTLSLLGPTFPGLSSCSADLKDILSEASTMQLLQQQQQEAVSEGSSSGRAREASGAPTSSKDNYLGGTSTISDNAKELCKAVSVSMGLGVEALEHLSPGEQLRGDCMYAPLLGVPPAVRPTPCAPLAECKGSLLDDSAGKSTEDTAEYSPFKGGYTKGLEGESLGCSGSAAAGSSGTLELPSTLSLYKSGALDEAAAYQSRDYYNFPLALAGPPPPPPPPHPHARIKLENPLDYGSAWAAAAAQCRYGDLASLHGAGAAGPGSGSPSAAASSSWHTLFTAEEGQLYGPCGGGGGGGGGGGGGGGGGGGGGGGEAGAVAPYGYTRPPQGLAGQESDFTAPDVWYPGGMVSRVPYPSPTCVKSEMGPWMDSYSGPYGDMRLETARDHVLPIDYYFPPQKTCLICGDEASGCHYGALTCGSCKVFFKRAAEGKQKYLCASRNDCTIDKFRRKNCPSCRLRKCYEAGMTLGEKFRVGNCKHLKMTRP
Experiment: Degradation activity on androgen receptor splicing variant AR-v7 in 22RV1 cells (ELISA)
Type: cell-based
Details: AR-v7 degradation in 22RV1 cells, 48 h, class symbols
Description: The degradation activity of the compound of the present invention on the androgen receptor splicing variant AR-V7 was analyzed using enzyme-linked immunosorbent assay (ELISA).
The plate was cultured in a 5% CO2 cell incubator at 37° C. for 2 days until the cells adhered to the wall. • 2) The drug was prepared into 10 mM stock solution with dimethylsulfoxide (DMSO). […] The plate was gently shaken and mixed. In addition, negative control wells (only containing culture medium) and positive control wells (only containing cells and DMSO) were set. • 3) After the cells were cultured in an incubator for 48 h, the medium was removed and the cells were rinsed once with ice cold PBS. Then, ice-cold 1× cell lysis buffer was added to each well of the cell culture plate. After the plate was incubated on ice for 15 min, the plate was tapped to mix. • 4) The supernatant of the cell lysate was transferred from the cell culture plate to a […] plate for ELISA. • 5) The newly prepared Capture antibody (green) was mixed with the newly prepared HRP-labeled antibody (red), and then the antibody mixture was added to the above 96-well ELISA plate. • 6) The ELISA plate was sealed with plastic film, and then incubated in a 25° C. incubator for 1 h. • 7) The washing buffer was added to each well, and then TMB substrate was added to each well of the ELISA plate. Subsequently, the plate was cultured in an incubator at 37° C. for 5 min. • 8) 100 μl of stop solution was added to each well of the ELISA plate, and the plate was gently tapped for several seconds. The absorbance was read at 450 nm within 30 min. The data were analyzed by the Dose-response equation in the software GraphPad Prism8, to obtain DC50 and Dmax values.

Row | Compound | DC50 [nM]
1 | Cc1noc(-c2ncc(Oc3ccc(C(C)(C)c4ccc(O[C@H]5C[C@@H](Nc6ccc7c(c6)C(=O)N(C6CCC(=O)NC6=O)C7=O)C5)cc4)cc3)cn2)n1 (stereo partly drawn) [Example 263] | 11 to 100
2 | CC(O)c1ncc(Oc2ccc(C(C)(C)c3ccc(O[C@H]4C[C@@H](Nc5ccc6c(c5)C(=O)N(C5CCC(=O)NC5=O)C6=O)C4)cc3)cc2)cn1 (stereo partly drawn) [Example 127] | 11 to 100
3 | Cc1nnc(-c2cc(Oc3ccc(C(C)(C)c4ccc(O[C@H]5C[C@H](Nc6ccc7c(c6)C(=O)N(C6CCC(=O)NC6=O)C7=O)C5)cc4)cc3)ncn2)o1 (stereo partly drawn) [Example 590] | 11 to 100
4 | CCC(CC)(c1ccc(OCCCNc2ccc3c(c2)C(=O)N(C2CCC(=O)NC2=O)C3=O)cc1)c1ccc(OCc2ccnc(C(C)=O)n2)cc1 (stereo not drawn) [Example 439, 5-((3-(4-(3-(4-((2-acetylpyrimidin-4-yl)methoxy)phenyl)pentan-3-yl)phenoxy)propyl)amino)-2-(2,6-dioxopiperidine-3-amino)isoindolin-1,3-dione] | 11 to 100
5 | Cc1nnc(-c2ccnc(Oc3ccc(C(C)(C)c4ccc(O[C@H]5C[C@H](Nc6ccc7c(c6)C(=O)N(C6CCC(=O)NC6=O)C7=O)C5)cc4)cc3)c2)o1 (stereo partly drawn) [Example 257] | 11 to 100
6 | CC(C)(c1ccc(OCCCOCCCNc2cccc3c2C(=O)N(C2CCC(=O)NC2=O)C3=O)cc1)c1ccc(OCc2ccnc(NS(C)(=O)=O)n2)cc1 (stereo not drawn) [Example 17] | 1000 to 5000
7 | O=C1CCC(N2C(=O)c3ccc(N[C@H]4C[C@H](Oc5ccc(C6(c7ccc(Oc8ccc(-n9ccnn9)nn8)cc7)CC6)cc5)C4)cc3C2=O)C(=O)N1 (stereo partly drawn) [Example 375, 5-(((1r,3r)-3-(4-(1-(4-((6-(1H-1,2,3-triazole-1-yl)pyridazine-3-yl)oxy)phenyl)cyclopropyl)phenoxy)cyclobutyl)amino)-2-(2,6-dioxopiperidin-3-yl)isoindolin-1,3-dione] | 11 to 100
8 | CC(C)(c1ccc(OCc2ccnc(NS(C)(=O)=O)n2)cc1)c1ccc(OC2CCN(CC3CCN(CC4CCN(CC5CN(c6ccc7c(c6)C(=O)N(C6CCC(=O)NC6=O)C7=O)C5)CC4)CC3)CC2)cc1 (stereo not drawn) [Example 12] | 1000 to 5000
9 | Cc1nc(-c2ncc(Oc3ccc(C(C)(C)c4ccc(O[C@H]5C[C@H](Nc6ccc7c(c6)C(=O)N(C6CCC(=O)NC6=O)C7=O)C5)cc4)cc3)cc2C(F)(F)F)no1 (stereo partly drawn) [Example 211] | 11 to 100
10 | COC(=O)c1ncc(Oc2ccc(C(C)(C)c3ccc(O[C@H]4C[C@H](Nc5ccc6c(c5)C(=O)N(C5CCC(=O)NC5=O)C6=O)C4)cc3)cc2)cn1 (stereo partly drawn) [Example 266, methyl 5-(4-(2-(4-((1r,3r)-3-((2-(2,6-dioxopiperidin-3-yl)-1,3-dioxoisoindolin-5-yl)amino)cyclobutyloxy)phenyl)propan-2-yl)phenoxy)pyrimidin-2-carboxylate] | 11 to 100

Next, values leading:

Row | DC50 [nM] | Compound
11 | 11 to 100 | CN1CCC(Oc2nccc(COc3ccc(C(C)(C)c4ccc(O[C@H]5C[C@@H](Nc6ccc7c(c6)C(=O)N(C6CCC(=O)NC6=O)C7=O)C5)cc4)cc3)n2)CC1 (stereo partly drawn) [Example 234]
12 | 11 to 100 | CC(C)(c1ccc(OCc2ccnc(N3C[C@@H]4C[C@H]3CN4)n2)cc1)c1ccc(O[C@H]2C[C@@H](Nc3ccc4c(c3)C(=O)N(C3CCC(=O)NC3=O)C4=O)C2)cc1 (stereo partly drawn) [Example 260, 5-(((1s,3s)-3-(4-(2-(4-((2-((1S,4S)-2,5-diazabicyclo[2.2.1]heptan-2-yl)pyrimidin-4-yl)methoxy)phenyl)propan-2-yl)phenoxy)cyclobutyl)amino)-2-(2,6-dioxopiperidin-3-yl)isoindolin-1,3-dione]
13 | 101 to 1000 | CN1C(=O)CCC(N2C(=O)c3ccc(N[C@H]4C[C@H](Oc5ccc(C(C)(C)c6ccc(OCc7ccnc(N8CC9(COC9)C8)n7)cc6)cc5)C4)cc3C2=O)C1=O (stereo partly drawn) [Example 100, 5-((1r,3r)-3-(4-(2-(4-(4-((2-(2-oxa-6-azaspiro[3.3]heptane-6-yl)pyrimidin-4-yl)methoxy)phenyl)propan-2-yl)phenoxy)cyclobutyl)amino)-2-(1-methyl-2,6-dioxopiperidin-3-yl)isoindolin-1,3-dione]
14 | 11 to 100 | CC(C)(c1ccc(OCc2ccnc(N3CCOCC3)n2)cc1)c1ccc(OC2CC(Nc3ccc4c(c3)C(=O)N(C3CCC(=O)NC3=O)C4=O)C2)cc1 (stereo not drawn) [Example 394]
15 | 11 to 100 | CC(C)(c1ccc(OCc2nccc(N3CC4(COC4)C3)n2)cc1)c1ccc(O[C@H]2C[C@@H](Nc3ccc4c(c3)C(=O)N(C3CCC(=O)NC3=O)C4=O)C2)cc1 (stereo partly drawn) [Example 545]
16 | 11 to 100 | CC(C)(c1ccc(OCc2ccnc(N3CCC4(CCNC4)C3)n2)cc1)c1ccc(O[C@H]2C[C@H](Nc3ccc4c(c3)C(=O)N(C3CCC(=O)NC3=O)C4=O)C2)cc1 (stereo partly drawn) [Example 81, 5-(((1r,3r)-3-(4-(2-(4-((2-(2,7-diazaspiro[4.4]nonan-2-yl)pyrimidin-4-yl)methoxy)phenyl)propan-2-yl)phenoxy)cyclobutyl)amino)-2-(2,6-dioxopiperidin-3-yl)isoindolin-1,3-dione]
17 | 11 to 100 | CC(C)(c1ccc(OCc2ccnc(N3CC4(COC4)C3)n2)cc1)c1ccc(C(=O)N2CC(Nc3ccc4c(c3)C(=O)N(C3CCC(=O)NC3=O)C4=O)C2)cc1 (stereo not drawn) [Example 503]
18 | 101 to 1000 | CC(C)(c1ccc(OCc2ccnc(N3CC4(COC4)C3)n2)cc1)c1ccc(O[C@H]2C[C@@H](Nc3ccc4c(c3)C(=O)N(C3CCC(=O)NC3=O)C4)C2)cc1 (stereo partly drawn) [Example 92, 3-(6-(((1s,3s)-3-(4-(2-(4-((2-(2-oxa-6-azaspiro[3.3]heptane-6-yl)pyrimidin-4-yl)methoxy)phenyl)propan-2-yl)phenoxy)cyclobutyl)amino)-1-oxoisoindolin-2-yl)piperidin-2,6-dione]
19 | 11 to 100 | CC(C)(c1ccc(OCc2ccnc(N3CC4(COC4)C3)n2)cc1)c1ccc(O[C@]2(C)C[C@@H](Nc3ccc4c(c3)C(=O)N(C3CCC(=O)NC3=O)C4=O)C2)cc1 (stereo partly drawn) [Example 499, 5-((1r,3r)-3-(4-(2-(4-(4-((2-(2-oxa-6-azaspiro[3.3]heptane-6-yl)pyrimidin-4-yl)methoxy)phenyl)propan-2-yl)phenoxy)-3-methylcyclobutyl)amino)-2-(2,6-dioxopiperidin-3-yl)isoindolin-1,3-dione]

Same assay, conditions: AR-v7 degradation in 22RV1 cells, 48 h, numeric values

Row | DC50 [nM] | Compound
20 | > 10000 | CC(C)(c1ccc(OCCCCOCCCCN2CCC3(CC2)CN(c2ccc4c(c2)C(=O)N(C2CCC(=O)NC2=O)C4=O)C3)cc1)c1ccc(OCc2ccnc(NS(C)(=O)=O)n2)cc1 (stereo not drawn) [Example 3]
21 | > 5000 | CN1CCC2(CCN(c3nccc(COc4ccc(C(C)(C)c5ccc(OCCCCCCCCOCCCCNc6ccc7c(c6)C(=O)N(C6CCC(=O)NC6=O)C7=O)cc5)cc4)n3)C2)C1 (stereo not drawn) [Example 384]
22 | 6330 | CC(C)(c1ccc(OCCCN2CCN(CC3CCN(CCCNc4ccc5c(c4)C(=O)N(C4CCC(=O)NC4=O)C5=O)CC3)CC2)cc1)c1ccc(OCc2ccnc(NS(C)(=O)=O)n2)cc1 (stereo not drawn) [Example 29, N-(4-((4-(2-(4-(3-(4-((1-(3-((2-(2,6-dioxopiperidin-3-yl)-1,3-dioxoisoindolin-5-yl)amino)propyl)piperidin-4-yl)methyl)piperazin-1-yl)propoxy)phenyl)propan-2-yl)phenoxy)methyl)pyrimidin-2-yl)methanesulfonamide]
23 | > 10000 | CC(C)(c1ccc(OCc2ccnc(NS(C)(=O)=O)n2)cc1)c1ccc(OC2CN(CCCCCOCCCCNc3ccc4c(c3)C(=O)N(C3CCC(=O)NC3=O)C4=O)C2)cc1 (stereo not drawn) [Example 14]
24 | > 10000 | CC(C)(c1ccc(OCc2ccnc(NS(C)(=O)=O)n2)cc1)c1ccc(OCC2CCN(CCCOCCCCNc3ccc4c(c3)C(=O)N(C3CCC(=O)NC3=O)C4=O)CC2)cc1 (stereo not drawn) [Example 16]
